One experiment addresses T1, mTOR (Homo sapiens, UniProt P42345).
T1 construct: purchased Invitrogen
The experiment is described as follows: mTOR kinase inhibition assay. Type of experiment: biochemical.

A further experiment concerns the target PI3K α (Homo sapiens, UniProt P42336). Nature of the experiment: PI3K α kinase assay. The format is biochemical.
A further experiment concerns the target PI3K β (Homo sapiens, UniProt P42338). Nature of the experiment: PI3K β kinase assay. Type of experiment: biochemical.
The target of another experiment is PI3K γ (Homo sapiens, UniProt P48736). Nature of the experiment: PI3K γ kinase assay. Type of experiment: biochemical.
The target in the next experiment is PI3K δ (Homo sapiens, UniProt O00329). The experiment is described as follows: PI3K δ kinase assay. The format is biochemical.
The next experiment concerns PC3. The experiment is described as follows: PC3 proliferation. Type of experiment: cell-based. Conditions: Homo sapiens, PC-3; for IC50: Table 2; for EC50: Table 1.

SMILES strings stand for the structures. Read-outs that look alike come from different tables or passages of the source. Some results are limits rather than exact numbers.

Sequence of PI3K γ (P48736 whole entry, species assumed): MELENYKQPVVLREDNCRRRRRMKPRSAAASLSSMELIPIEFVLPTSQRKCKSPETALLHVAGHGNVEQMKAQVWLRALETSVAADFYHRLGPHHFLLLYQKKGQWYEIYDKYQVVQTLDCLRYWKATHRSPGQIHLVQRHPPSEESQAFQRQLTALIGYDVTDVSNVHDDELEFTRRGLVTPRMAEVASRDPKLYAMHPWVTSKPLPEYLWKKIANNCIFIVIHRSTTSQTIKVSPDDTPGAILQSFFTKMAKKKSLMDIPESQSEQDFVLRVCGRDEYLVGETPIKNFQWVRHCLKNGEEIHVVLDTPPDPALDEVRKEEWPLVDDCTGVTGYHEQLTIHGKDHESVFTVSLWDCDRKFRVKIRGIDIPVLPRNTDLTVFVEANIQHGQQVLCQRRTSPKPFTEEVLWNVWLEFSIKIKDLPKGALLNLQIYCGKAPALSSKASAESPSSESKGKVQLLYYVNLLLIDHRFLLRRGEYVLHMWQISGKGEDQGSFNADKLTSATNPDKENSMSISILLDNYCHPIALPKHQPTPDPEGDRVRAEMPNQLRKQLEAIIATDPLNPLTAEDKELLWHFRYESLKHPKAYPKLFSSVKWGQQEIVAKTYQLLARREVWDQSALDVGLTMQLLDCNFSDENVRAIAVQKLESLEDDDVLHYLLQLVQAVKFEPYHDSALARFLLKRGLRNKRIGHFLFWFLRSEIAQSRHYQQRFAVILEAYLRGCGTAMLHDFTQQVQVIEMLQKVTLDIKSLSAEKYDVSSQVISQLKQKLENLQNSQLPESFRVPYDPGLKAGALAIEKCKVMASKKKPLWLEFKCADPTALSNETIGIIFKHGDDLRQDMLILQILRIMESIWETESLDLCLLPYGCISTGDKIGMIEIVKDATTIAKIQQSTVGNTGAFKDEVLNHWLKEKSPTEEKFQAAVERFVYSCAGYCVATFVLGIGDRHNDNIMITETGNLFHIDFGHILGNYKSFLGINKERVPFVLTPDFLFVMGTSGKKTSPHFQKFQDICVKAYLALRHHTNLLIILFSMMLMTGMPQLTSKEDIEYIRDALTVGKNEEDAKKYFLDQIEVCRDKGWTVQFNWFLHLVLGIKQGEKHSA
Sequence of PI3K δ (O00329 whole entry, species assumed): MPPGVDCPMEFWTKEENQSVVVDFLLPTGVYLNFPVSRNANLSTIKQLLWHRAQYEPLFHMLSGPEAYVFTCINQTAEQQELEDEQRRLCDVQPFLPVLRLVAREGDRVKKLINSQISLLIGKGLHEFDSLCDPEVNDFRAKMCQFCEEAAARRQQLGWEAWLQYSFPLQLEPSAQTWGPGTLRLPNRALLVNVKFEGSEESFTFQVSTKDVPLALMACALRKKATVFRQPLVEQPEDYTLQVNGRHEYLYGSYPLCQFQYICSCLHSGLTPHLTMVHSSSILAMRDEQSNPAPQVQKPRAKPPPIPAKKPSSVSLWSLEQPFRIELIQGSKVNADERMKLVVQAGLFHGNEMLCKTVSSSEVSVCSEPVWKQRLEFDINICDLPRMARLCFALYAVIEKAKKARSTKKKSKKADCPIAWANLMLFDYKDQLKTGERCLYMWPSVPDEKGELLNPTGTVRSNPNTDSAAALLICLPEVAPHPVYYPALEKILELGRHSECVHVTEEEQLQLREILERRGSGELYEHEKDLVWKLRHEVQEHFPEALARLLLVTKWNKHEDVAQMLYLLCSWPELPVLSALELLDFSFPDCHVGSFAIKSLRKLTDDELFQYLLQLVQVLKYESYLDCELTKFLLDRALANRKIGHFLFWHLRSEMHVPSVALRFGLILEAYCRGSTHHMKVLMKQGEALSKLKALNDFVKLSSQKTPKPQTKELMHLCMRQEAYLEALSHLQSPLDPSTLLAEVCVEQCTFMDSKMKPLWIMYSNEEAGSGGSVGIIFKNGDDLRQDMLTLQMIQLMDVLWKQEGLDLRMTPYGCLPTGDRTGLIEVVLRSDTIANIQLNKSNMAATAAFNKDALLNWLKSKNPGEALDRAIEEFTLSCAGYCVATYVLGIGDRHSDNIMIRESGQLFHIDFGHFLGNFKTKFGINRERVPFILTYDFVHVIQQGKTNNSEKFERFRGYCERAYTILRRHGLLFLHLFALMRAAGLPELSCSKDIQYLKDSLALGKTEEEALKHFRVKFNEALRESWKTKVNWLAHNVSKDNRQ
Sequence of PI3K δ (P27986 whole entry partner, species assumed): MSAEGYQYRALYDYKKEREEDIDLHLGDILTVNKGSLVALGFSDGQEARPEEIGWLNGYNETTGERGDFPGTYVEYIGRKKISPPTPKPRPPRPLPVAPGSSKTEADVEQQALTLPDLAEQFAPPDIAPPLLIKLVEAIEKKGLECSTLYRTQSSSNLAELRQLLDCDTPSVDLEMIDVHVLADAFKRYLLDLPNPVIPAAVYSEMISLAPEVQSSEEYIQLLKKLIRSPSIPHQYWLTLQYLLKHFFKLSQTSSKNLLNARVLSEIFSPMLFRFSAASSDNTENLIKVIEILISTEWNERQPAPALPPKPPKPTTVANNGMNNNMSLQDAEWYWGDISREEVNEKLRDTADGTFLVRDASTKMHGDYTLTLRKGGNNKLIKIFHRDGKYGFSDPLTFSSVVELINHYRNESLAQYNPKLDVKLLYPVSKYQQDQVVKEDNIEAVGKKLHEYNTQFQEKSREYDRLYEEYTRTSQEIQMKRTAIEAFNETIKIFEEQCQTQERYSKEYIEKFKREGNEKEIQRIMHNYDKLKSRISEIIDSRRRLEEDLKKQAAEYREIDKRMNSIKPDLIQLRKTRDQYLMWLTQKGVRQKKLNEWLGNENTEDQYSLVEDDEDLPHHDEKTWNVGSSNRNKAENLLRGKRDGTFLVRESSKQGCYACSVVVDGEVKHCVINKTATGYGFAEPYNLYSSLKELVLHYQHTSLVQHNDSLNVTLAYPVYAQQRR
Sequence of PI3K β (P42338 whole entry, species assumed): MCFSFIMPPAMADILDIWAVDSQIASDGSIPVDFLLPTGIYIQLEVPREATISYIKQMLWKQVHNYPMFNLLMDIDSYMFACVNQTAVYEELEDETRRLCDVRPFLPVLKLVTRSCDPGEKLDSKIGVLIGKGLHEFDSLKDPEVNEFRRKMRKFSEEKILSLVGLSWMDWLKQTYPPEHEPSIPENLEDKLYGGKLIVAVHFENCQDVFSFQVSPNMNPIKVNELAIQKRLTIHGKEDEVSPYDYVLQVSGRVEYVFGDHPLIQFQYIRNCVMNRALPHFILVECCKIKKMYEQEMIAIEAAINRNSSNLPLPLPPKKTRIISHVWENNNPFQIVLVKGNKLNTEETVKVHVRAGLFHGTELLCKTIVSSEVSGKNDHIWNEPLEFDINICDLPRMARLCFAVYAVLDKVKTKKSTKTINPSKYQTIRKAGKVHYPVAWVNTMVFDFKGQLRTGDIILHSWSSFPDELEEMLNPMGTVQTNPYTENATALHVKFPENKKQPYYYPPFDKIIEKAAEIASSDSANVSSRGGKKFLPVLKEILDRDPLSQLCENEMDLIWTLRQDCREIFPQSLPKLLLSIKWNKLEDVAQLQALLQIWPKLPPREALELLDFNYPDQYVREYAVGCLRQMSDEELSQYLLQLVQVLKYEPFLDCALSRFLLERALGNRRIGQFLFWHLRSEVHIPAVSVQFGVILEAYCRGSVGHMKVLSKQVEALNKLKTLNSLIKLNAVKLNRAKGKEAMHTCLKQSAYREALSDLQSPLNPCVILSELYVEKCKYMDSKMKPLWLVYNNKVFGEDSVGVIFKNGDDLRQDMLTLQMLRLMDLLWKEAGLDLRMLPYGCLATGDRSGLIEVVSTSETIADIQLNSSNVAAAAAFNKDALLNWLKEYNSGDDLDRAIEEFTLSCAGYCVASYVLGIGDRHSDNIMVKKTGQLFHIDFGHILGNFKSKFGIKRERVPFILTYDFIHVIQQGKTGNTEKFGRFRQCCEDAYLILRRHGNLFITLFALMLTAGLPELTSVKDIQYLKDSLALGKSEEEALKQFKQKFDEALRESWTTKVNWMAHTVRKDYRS
Sequence of PI3K β (P27986 whole entry partner, species assumed): as the sequence (P27986 whole entry partner, species assumed) above
Sequence of PI3K α (P42336 whole entry, species assumed): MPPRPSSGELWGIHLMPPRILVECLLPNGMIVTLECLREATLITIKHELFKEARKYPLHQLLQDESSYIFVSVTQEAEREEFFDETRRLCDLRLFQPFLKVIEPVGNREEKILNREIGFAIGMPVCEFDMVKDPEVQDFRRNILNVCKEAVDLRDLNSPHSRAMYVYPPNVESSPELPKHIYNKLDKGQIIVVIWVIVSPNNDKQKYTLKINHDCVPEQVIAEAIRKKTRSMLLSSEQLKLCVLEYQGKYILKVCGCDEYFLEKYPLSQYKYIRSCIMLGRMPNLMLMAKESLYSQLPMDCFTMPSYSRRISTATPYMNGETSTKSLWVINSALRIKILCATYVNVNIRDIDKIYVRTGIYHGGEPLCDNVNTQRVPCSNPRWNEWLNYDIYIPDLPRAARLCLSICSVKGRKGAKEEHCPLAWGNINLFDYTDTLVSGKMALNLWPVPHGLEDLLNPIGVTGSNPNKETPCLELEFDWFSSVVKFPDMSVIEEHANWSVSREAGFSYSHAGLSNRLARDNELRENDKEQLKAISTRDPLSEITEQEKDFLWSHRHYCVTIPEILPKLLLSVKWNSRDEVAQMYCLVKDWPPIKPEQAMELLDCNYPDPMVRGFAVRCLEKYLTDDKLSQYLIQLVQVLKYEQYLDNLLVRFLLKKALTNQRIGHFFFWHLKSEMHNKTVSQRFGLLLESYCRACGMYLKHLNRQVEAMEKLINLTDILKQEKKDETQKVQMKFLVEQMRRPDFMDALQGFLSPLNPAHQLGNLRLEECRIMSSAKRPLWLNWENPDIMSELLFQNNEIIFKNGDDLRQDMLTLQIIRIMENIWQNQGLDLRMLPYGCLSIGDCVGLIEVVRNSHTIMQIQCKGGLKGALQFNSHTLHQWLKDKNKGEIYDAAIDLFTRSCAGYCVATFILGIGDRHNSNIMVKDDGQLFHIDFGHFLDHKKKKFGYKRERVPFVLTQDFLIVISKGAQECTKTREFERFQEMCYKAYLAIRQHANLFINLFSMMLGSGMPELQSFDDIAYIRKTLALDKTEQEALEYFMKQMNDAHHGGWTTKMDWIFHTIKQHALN
Sequence of PI3K α (P27986 whole entry partner, species assumed): as the sequence (P27986 whole entry partner, species assumed) above
Experimental for mTOR: The compounds described herein and any other mTorC1/mTorC2 inhibitors known in the art can be tested against recombinant mTOR (Invitrogen) in an assay containing 50 mM HEPES, pH 7.5, 1 mM EGTA, 10 mM MgCl2, 2.5 mM, 0.01% Tween, 10 μM ATP (2.5 μCi of μ-32P-ATP), and 3 mg/mL BSA. Rat recombinant PHAS-1/4EBP1 (Calbiochem; 2 mg/mL) is used as a substrate. Reactions are terminated by spotting onto nitrocellulose, which is washed with 1M NaCl/1% phosphoric acid (approximately 6 times, 5-10 minutes each). Sheets are dried and the transferred radioactivity quantitated by phosphorimaging.
For instance, one can use Invitrogen's LanthaScreen™ Kinase assay to test the inhibitors of mTOR disclosed herein. This assay is a time resolved FRET platform that measures the phosphorylation of GFP labeled 4EBP1 by mTOR kinase. The kinase reaction is performed in a white 384 well microtitre plate. The total reaction volume is 20 μl per well and the reaction buffer composition is 50 mM HEPES pH7.5, 0.01% Polysorbate 20, 1 mM EGTA, 10 mM MnCl2, and 2 mM DTT. In the first step, each well receives 2 ul of test compound in 20% dimethylsulphoxide resulting in a 2% DMSO final concentration. Next, 8ul of mTOR diluted in reaction buffer is added per well for a 60 ng/ml final concentration. To start the reaction, 10 ul of an ATP/GFP-4EBP1 mixture (diluted in reaction buffer) is added per well for a final concentration of 10 μM ATP and 0.5 μM GFP-4EBP1. The plate is sealed and incubated for 1 hour at room temperature. […] The plate is sealed, incubated for 1 hour at room temperature, and then read on a plate reader set up for LanthaScreen™ TR-FRET. Data is analyzed and IC50s are generated using GraphPad Prism 5.

On to `CC(C)n1nc(-c2cc3cc(O)cc(Cl)c3[nH]2)c2c(N)ncnc21` [Compound 15], for which the IC50 at mTOR (Table 2, read-out: mTORC IC50) was under 5 nM; on PI3K α (Table 2), over 500 nM; against PI3K β (Table 2), over 500 nM; against PI3K γ (Table 2) it was 25 to 50 nM; on PI3K δ (Table 2), 25 to 50 nM; with PC3, 25 to 50 nM.

In the case of `Nc1ncnc2c1c(-c1cc3cc(O)ccc3[nH]1)nn2C1CCCCC1` [Compound 26], the IC50 at mTOR (Table 2, read-out: mTORC IC50) is 5 to 10 nM; on PI3K α (Table 2), over 500 nM; on PI3K β (Table 2) it was over 500 nM; on PI3K γ (Table 2) it was 100 to 500 nM; on PI3K δ (Table 2), 50 to 100 nM; with PC3 it was 100 to 500 nM.

As for `Nc1nc2cc(-c3nn(C4CCOCC4)c4ncnc(N)c34)ccc2o1` [Compound 5], the half-maximal inhibitory concentration (IC50) is under 100 nM on mTOR (Table 1, read-out: mTOR IC50); under 1000 nM on PI3K α (Table 1); under 10000 nM on PI3K β (Table 1); under 100 nM at PI3K γ (Table 1); under 1000 nM against PI3K δ (Table 1). This compound also gave an EC50 with PC3 of under 100 nM.

As to `Nc1ncnc2c1c(-c1cc3cccc(O)c3[nH]1)nn2C1CCCC1` [Compound 36], the IC50 is 5 to 10 nM at mTOR (Table 2, read-out: mTORC IC50); over 500 nM against PI3K α (Table 2); 50 to 100 nM against PI3K γ (Table 2); 100 to 500 nM against PI3K δ (Table 2); 50 to 100 nM with PC3.

For the compound `Nc1nc2cc(-c3cn(C4CCOCC4)c4ncnc(N)c34)ccc2o1` [Compound 9], the IC50 at mTOR (Table 1, read-out: mTOR IC50) is under 100 nM; at PI3K α (Table 1), under 10000 nM; against PI3K β (Table 1), over 10000 nM. Further, in the experiment on PC3, the EC50 was under 100 nM.

On to `CC(C)n1nc(-c2ccc3nc(N)oc3c2)c2c(N)ncnc21` [Compound 4], for which the IC50 at mTOR (Table 1, read-out: mTOR IC50) was under 1000 nM; against PI3K α (Table 1) it was under 10000 nM; on PI3K β (Table 1) it was under 10000 nM; against PI3K γ (Table 1), under 1000 nM; against PI3K δ (Table 1), under 1000 nM. Further, the EC50 with PC3 was under 10000 nM.

Take `CC(C)n1nc(-c2cc3cc(O)cc(F)c3[nH]2)c2c(N)ncnc21` [Compound 16]: the IC50 is under 5 nM at mTOR (Table 2, read-out: mTORC IC50); over 500 nM against PI3K α (Table 2); over 500 nM on PI3K β (Table 2); 100 to 500 nM at PI3K γ (Table 2); 50 to 100 nM against PI3K δ (Table 2); 100 to 500 nM in the experiment on PC3.

`Nc1nc2cc(-c3nn(C4CCC(N5CCOCC5)CC4)c4ncnc(N)c34)ccc2o1` (stereo not drawn) [Compound 6]: the IC50 at mTOR (Table 1, read-out: mTOR IC50) was under 100 nM; against PI3K β (Table 1), over 10000 nM; at PI3K δ (Table 1), under 1000 nM. This compound returned an EC50 with PC3 of under 1000 nM.

As to `CC(C)n1cc(-c2ccc3oc(N)nc3c2)c2c(N)ncnc21` [Compound 8], the IC50 is under 100 nM at mTOR (Table 1, read-out: mTOR IC50); under 1000 nM at PI3K α (Table 1); over 10000 nM against PI3K β (Table 1); under 1000 nM on PI3K γ (Table 1); under 1000 nM against PI3K δ (Table 1). For the same compound, in the experiment on PC3, the 50% effective concentration (EC50) is under 100 nM.

Regarding `CC(=O)Nc1nc2cc(-c3nn(C(C)C)c4ncnc(N)c34)ccc2o1` [Compound 2], the IC50 on mTOR (Table 1, read-out: mTOR IC50) is under 100 nM; against PI3K α (Table 1), under 10000 nM; on PI3K β (Table 1), over 10000 nM; against PI3K γ (Table 1), under 1000 nM; against PI3K δ (Table 1) it was under 1000 nM. The compound further displayed an EC50 in the experiment on PC3 of under 1000 nM.

In the case of `CC(C)n1nc(-c2cc3cccc(O)c3[nH]2)c2c(N)ncnc21` [Compound 11], the IC50 is under 5 nM on mTOR (Table 2, read-out: mTORC IC50); over 500 nM against PI3K α (Table 2); over 500 nM against PI3K β (Table 2); 100 to 500 nM against PI3K γ (Table 2); 100 to 500 nM at PI3K δ (Table 2); 25 to 50 nM in the experiment with PC3.

On to `CC(=O)N1CCC(n2nc(-c3ccc4oc(N)nc4c3)c3c(N)ncnc32)CC1` [Compound 7], for which the IC50 on mTOR (Table 1, read-out: mTOR IC50) is under 100 nM; at PI3K α (Table 1) it was under 1000 nM; against PI3K β (Table 1) it was under 10000 nM; on PI3K γ (Table 1), under 10000 nM; on PI3K δ (Table 1) it was under 1000 nM. In addition, the EC50 with PC3 is under 10000 nM.

On to `Nc1ncnc2c1c(-c1cc3cc(O)ccc3[nH]1)nn2C1CCCC1` [Compound 12], for which the IC50 on mTOR (Table 2, read-out: mTORC IC50) was 5 to 10 nM; at PI3K α (Table 2), over 500 nM; against PI3K β (Table 2), over 500 nM; against PI3K δ it was over 500 nM; with PC3 it was 25 to 50 nM.

Values taken from patent US20130209543A1, “ENHANCED TREATMENT REGIMENS USING MTOR INHIBITORS” (Intellikine LLC, priority 2011, published 2013).
